Measured values published in the supplement of paper PMC11451515.

Tested on: SEM cells
Assay: cell viability relative to DMSO control; higher = less cytotoxic
Conditions: 48 h
Method in brief: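 Library compounds in DMSO were pin-dosed into 1536-well plates (5 μl) holding NOMO1 or SEM (500 cells/well) or P12-Ichikawa (1000 cells/well) leukemia cells, across an 11-point threefold series of 47 μM to 0.79 nM. Each cell line had been adapted for at least four passages in each medium. CellTiter-Glo One luminescence was read after 48 h at 37°C. Viability is the per-plate percentage relative to DMSO wells, with cell-free wells as background.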

[1] = HPLM + 10% dialyzed FBS, 0.000781 µM
[2] = HPLM + 10% dialyzed FBS, 0.00234 µM
[3] = HPLM + 10% dialyzed FBS, 0.00702 µM
[4] = HPLM + 10% dialyzed FBS, 0.0211 µM
[5] = HPLM + 10% dialyzed FBS, 0.0632 µM
[6] = HPLM + 10% dialyzed FBS, 0.19 µM
[7] = HPLM + 10% dialyzed FBS, 0.569 µM
[8] = HPLM + 10% dialyzed FBS, 1.71 µM
[9] = HPLM + 10% dialyzed FBS, 5.12 µM
[10] = HPLM + 10% dialyzed FBS, 15.4 µM
[11] = HPLM + 10% dialyzed FBS, 46.1 µM
[12] = RPMI 5 mM glucose + 10% FBS, 0.000781 µM
[13] = RPMI 5 mM glucose + 10% FBS, 0.00234 µM
[14] = RPMI 5 mM glucose + 10% FBS, 0.00702 µM
[15] = RPMI 5 mM glucose + 10% FBS, 0.0211 µM
[16] = RPMI 5 mM glucose + 10% FBS, 0.0632 µM
[17] = RPMI 5 mM glucose + 10% FBS, 0.19 µM
[18] = RPMI 5 mM glucose + 10% FBS, 0.569 µM
[19] = RPMI 5 mM glucose + 10% FBS, 1.71 µM
[20] = RPMI 5 mM glucose + 10% FBS, 5.12 µM
[21] = RPMI 5 mM glucose + 10% FBS, 15.4 µM
[22] = RPMI 5 mM glucose + 10% FBS, 46.1 µM
[23] = RPMI 5 mM glucose + 10% dialyzed FBS, 0.000781 µM
[24] = RPMI 5 mM glucose + 10% dialyzed FBS, 0.00234 µM
[25] = RPMI 5 mM glucose + 10% dialyzed FBS, 0.00702 µM
[26] = RPMI 5 mM glucose + 10% dialyzed FBS, 0.0211 µM
[27] = RPMI 5 mM glucose + 10% dialyzed FBS, 0.0632 µM
[28] = RPMI 5 mM glucose + 10% dialyzed FBS, 0.19 µM
[29] = RPMI 5 mM glucose + 10% dialyzed FBS, 0.569 µM
[30] = RPMI 5 mM glucose + 10% dialyzed FBS, 1.71 µM
[31] = RPMI 5 mM glucose + 10% dialyzed FBS, 5.12 µM
[32] = RPMI 5 mM glucose + 10% dialyzed FBS, 15.4 µM
[33] = RPMI 5 mM glucose + 10% dialyzed FBS, 46.1 µM

SMILES	cell viability [1] [%]	cell viability [2] [%]	cell viability [3] [%]	cell viability [4] [%]	cell viability [5] [%]	cell viability [6] [%]	cell viability [7] [%]	cell viability [8] [%]	cell viability [9] [%]	cell viability [10] [%]	cell viability [11] [%]	cell viability [12] [%]	cell viability [13] [%]	cell viability [14] [%]	cell viability [15] [%]	cell viability [16] [%]	cell viability [17] [%]	cell viability [18] [%]	cell viability [19] [%]	cell viability [20] [%]	cell viability [21] [%]	cell viability [22] [%]	cell viability [23] [%]	cell viability [24] [%]	cell viability [25] [%]	cell viability [26] [%]	cell viability [27] [%]	cell viability [28] [%]	cell viability [29] [%]	cell viability [30] [%]	cell viability [31] [%]	cell viability [32] [%]	cell viability [33] [%]
CN(C)[C@H]\1[C@@H]2C[C@H]3C(=C(O)\[C@]2(O)C(=O)\C(=C1O)C(N)=O)/C(=O)C4=C(O)C=CC=C4[C@@]3(C)O	92.6	88.5	81.5	101	92.5	90.8	92.7	86.6	85.2	90.1	78.3	113	118	114	102	83.7	104	108	96.8	93.2	109	93	118	108	128	129	89.8	108	126	116	59.4	116	100
CCOC(=O)C/1=C(O)/C(=O)N(CC2=CC=CC=C2)C1	97.8	98.5	98	91	110	108	108	120	111	106	86.1	99	104	94.4	90.1	111	111	99.4	99.2	98.3	94.9	83.9	119	113	105	125	109	111	108	125	108	106	93.7
CC[C@H](C)[N]1C=C(C)C2=C1C=C(C=C2C(=O)NC\C3=C(C)\C=C(\C)NC3=O)C4=CC=C(N=C4)N5CCNCC5	106	104	112	117	114	106	112	117	113	113	99	83.5	105	108	102	113	108	99	109	96.5	95	101	101	120	115	108	110	103	107	100	107	116	104
CCN1\C=C(\C(O)=O)C(=O)C2=CC=C(C)N=C12	72.7	70.2	82.7	87.4	99	97.5	92	94.8	96.4	19.8	97.3	86	93.3	102	97.1	93	108	90.9	98.9	103	13.6	76.5	86.9	82.3	103	97.9	86.3	111	103	96.6	66	21.3	78.5
FC1=CC=C(SC/2=N/N3\C=N/C(=O)/C(=C3/C=C2)C4=C(Cl)C=CC=C4Cl)C(=C1)F	79	85.9	89.7	91.1	92	88.1	98.5	89.7	88.1	76.7	44.9	97.5	104	106	101	108	101	102	112	93.8	62.9	20.1	91.7	78.6	95.7	93.4	103	87.5	83.3	79.3	77.2	73.4	33.6
C[N]1C=C(C2=C1C=CC=C2)\C3=C(\C(=O)NC3=O)C4=C5CC(CN)CC[N]5C6=C4C=CC=C6 (centres undefined)	88.4	97.6	92.2	107	75.4	102	108	99.5	86.3	19.3	3.63	100	108	98.1	107	66.6	111	95	86	79.1	31.8	3.05	89.9	108	105	107	86.1	95.8	111	107	88.4	38.6	7.7
C=CC(=O)N1CCC[C@@H](n2nc(-c3ccc(Oc4ccccc4)cc3)c3c(N)ncnc32)C1	–	–	–	–	–	–	–	–	–	–	–	95.1	127	112	99	128	110	102	99.7	103	79.9	33.5	–	–	–	–	–	–	–	–	–	–	–
Cn1cnc2c1c(=O)[nH]c(=O)n2C	97.5	110	103	106	116	115	112	107	94.1	91	5.76	92.7	85.2	106	101	93.2	107	93	94.3	79.6	61.8	5.77	95.3	99	90.9	108	111	94.3	108	105	96.8	79.9	6.67
C[C@]12CCC(=O)C=C1CC[C@@H]1[C@@H]2CC[C@@]2(C)[C@H]1CC[C@]2(C)O	93.6	72.8	86.5	29.9	86.7	91.1	68.3	84.9	90.9	65.6	78.7	101	105	97.3	29.8	98.1	95.5	96.1	74.3	102	95.8	85.4	95.5	82.2	86.9	41.9	95.2	98.6	107	99.7	100	98.9	97.4
CN[C@@H]1[C@H](O)[C@H](NC)[C@H]2O[C@@]3(O)C(=O)C[C@@H](C)O[C@H]3O[C@@H]2[C@H]1O	119	125	122	123	121	120	118	122	113	115	109	120	110	126	117	115	113	123	110	104	104	104	–	–	–	–	–	–	–	–	–	–	–
C=C[C@H]1CN2CC[C@H]1C[C@H]2[C@H](O)c1ccnc2ccc(OC)cc12	91.2	99.2	93.3	97	106	116	104	86	125	96.8	74.3	90.8	88.7	84	89.7	105	99.2	104	90.7	102	94.5	50.4	85.2	98.2	93.4	93.8	92	96.9	80	80.7	90.9	102	70.2
C[C@@]12C[C@@]3(O)O[C@@H](O1)[C@]1(COC(=O)c4ccccc4)[C@H]3C[C@@]12O[C@@H]1O[C@H](CO)[C@@H](O)[C@H](O)[C@H]1O	96	91.2	109	117	98.5	103	108	96.7	107	113	107	105	87	101	100	124	92.6	116	138	111	105	98.9	99	89.8	118	122	121	101	119	115	122	107	122
CCC[C@H]1C[C@H](C(=O)N[C@@H]([C@@H]2O[C@@H](SC)[C@@H](O)[C@@H](O)[C@H]2O)[C@H](C)Cl)N(C)C1	79	90.9	91.2	95.1	100	94.1	130	106	109	98.4	99.9	101	114	117	101	132	112	112	117	110	126	124	66.4	84.7	94	87.3	97.7	89.6	110	94.3	97.7	110	101
Cc1c(NC(=O)OC[C@@H]2COCCN2)cn2ncnc(Nc3ccc4c(cnn4Cc4cccc(F)c4)c3)c12	74.5	72	85.6	85.8	91.5	106	94.5	96.8	103	21.7	25	95.5	95.2	103	103	116	102	109	104	98.6	15.4	10.8	71.7	62.1	78.1	90.3	74.8	84	88.5	99.6	85.6	16.8	9.72
